Here are results for 4 molecules from patent US8933224B2, “Triazine derivatives” (Pfizer Inc., priority 2013, dated 2015).

Test [1] addresses rat PDE10 enzyme (Rattus norvegicus (Rat), UniProt Q9QYJ6). The experiment in a line: PDE10 scintillation proximity assay (SPA), inhibition of rat PDE10 enzyme activity. The test is classed as biochemical. Particulars: geometric mean of 2-4 determinations unless otherwise indicated (b: ≧5 determinations; c: single determination). A digest of the protocol: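 SPA with fixed recombinant PDE10 (Sf21-expressed, Ni-NTA and Mono Q purified) converting ~20% of 20 nM ³H-cAMP in 50 mM TRIS pH 7.5, 1.3 mM MgCl2, 0.01% Brij, across an inhibitor range.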
For orientation: In a scintillation proximity assay essentially only radioactivity close to the scintillant gives light.

In test [2] the target is human recombinant PDE10 enzyme (PDE10A) (Homo sapiens, UniProt Q9Y233). The experiment in a line: PDE10 scintillation proximity assay (SPA), inhibition of human recombinant PDE10 enzyme activity. The test is classed as biochemical. The settings on record: geometric mean of 2-4 determinations unless otherwise indicated (b: ≧5 determinations; c: single determination). The method in brief:
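His6-tagged human PDE10A (aa 21–797) was expressed in insect cells and purified by Ni-NTA and size exclusion. The enzyme, at a level converting about 20% of 20 nM ^3H-cAMP, was incubated 30 min at 25°C in 50 mM Tris pH 7.5, 1.3 mM MgCl2, 0.01% Brij with inhibitors. The reaction was stopped with yttrium silicate SPA beads, read by scintillation, and IC50 determined.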

rat PDE10 enzyme, sequence (Q9QYJ6 24-794): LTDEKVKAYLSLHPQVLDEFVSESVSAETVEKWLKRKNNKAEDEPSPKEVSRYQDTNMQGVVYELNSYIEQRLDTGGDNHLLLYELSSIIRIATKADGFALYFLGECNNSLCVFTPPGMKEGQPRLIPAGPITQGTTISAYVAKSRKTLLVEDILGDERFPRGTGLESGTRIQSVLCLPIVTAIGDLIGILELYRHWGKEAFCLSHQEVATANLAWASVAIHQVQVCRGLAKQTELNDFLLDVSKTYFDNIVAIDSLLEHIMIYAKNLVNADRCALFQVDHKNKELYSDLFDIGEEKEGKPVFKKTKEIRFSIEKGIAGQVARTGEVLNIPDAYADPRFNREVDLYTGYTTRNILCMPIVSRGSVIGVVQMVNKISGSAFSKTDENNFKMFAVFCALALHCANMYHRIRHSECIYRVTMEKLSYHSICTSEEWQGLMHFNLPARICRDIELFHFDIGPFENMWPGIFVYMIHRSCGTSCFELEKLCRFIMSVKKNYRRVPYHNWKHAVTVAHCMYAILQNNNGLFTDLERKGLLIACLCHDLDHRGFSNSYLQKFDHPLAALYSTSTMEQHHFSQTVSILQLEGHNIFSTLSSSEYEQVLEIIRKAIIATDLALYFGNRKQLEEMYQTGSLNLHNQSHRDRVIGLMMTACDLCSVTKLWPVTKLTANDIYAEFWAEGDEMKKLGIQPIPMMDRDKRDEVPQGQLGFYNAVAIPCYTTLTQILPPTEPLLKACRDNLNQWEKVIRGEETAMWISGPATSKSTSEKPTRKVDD

In general, IC50 refers to the concentration that gives 50% inhibition. Regarding `Cc1ccc2c(n1)CCN(c1ncnn3c(C)nc([C@@H]4CCOC4)c13)C2` [Example 139, 2-methyl-6-{7-methyl-5-[(3S)-tetrahydrofuran-3-yl]imidazo[5,1-f][1,2,4]triazin-4-yl}-5,6,7,8-tetrahydro-1,6-naphthyridine], the IC50 in test [1] was found to be 0.27 nM; in test [2] it was 0.279 nM.

With `Cc1nc([C@@H]2CCOC2)c2c(N3CCc4cnn(C5CC5)c4C3)ncnn12` [Example 5, 4-(1-Cyclopropyl-1,4,5,7-tetrahydro-6H-pyrazolo[3,4-c]pyridin-6-yl)-7-methyl-5-[(3S)-tetrahydrofuran-3-yl]imidazo[5,1-f][1,2,4]triazine], the IC50 in test [1] stood at 0.299 nM; in test [2] it was 0.427 nM.

As to `Cc1nc([C@@H]2CCOC2)c2c(N3CCc4cnn(C)c4C3)ncnn12` [Example 8, 7-Methyl-4-(1-methyl-1,4,5,7-tetrahydro-6H-pyrazolo[3,4-c]pyridin-6-yl)-5-[(3S)-tetrahydrofuran-3-yl]imidazo[5,1-f][1,2,4]triazine], the IC50 turned out to be 2.36 nM in test [1] and 3.41 nM in test [2].

Turning to `CCn1ncc2c1CN(c1ncnn3c(C)nc(-c4ccccc4F)c13)CC2` [Example 166, 4-(1-ethyl-1,4,5,7-tetrahydro-6H-pyrazolo[3,4-c]pyridin-6-yl)-5-(2-fluorophenyl)-7-methylimidazo[5,1-f][1,2,4]triazine], the IC50 came out at 0.435 nM in test [1] and 0.801 nM in test [2].
